Measured values as given in patent publication US12065443B2, “Compounds and pharmaceutical compositions thereof for the treatment of diseases” (priority 2017, dated 2024).
Read-outs that look alike come from different tables or passages of the source.

Legend:
[1] = molecular target: T1, SIK2 (Homo sapiens, UniProt Q9H0K1); assay: biochemical; conditions: ADP-Glo SIK kinase assay
T1 construct: purchased ThermoFisher Scientific PV4792
Protocol: (§1) The ADP-Glo™ kinase assay is a luminescent technology assay which measures the ADP formed from a kinase reaction. […] In a second step the kinase reactions are terminated and all the remaining ATP is depleted. In a final step the ADP is converted into ATP and this newly synthesized ATP is measured by using a luciferase/luciferin reaction. The generated light is measured using an Envision plate reader, wherein the luminescent signal obtained positively correlates with the kinase activity.
(§2) 1% DMSO and 10 μM staurosporine final concentrations are used as negative and positive controls.
(§3) 2 μL enzyme-substrate mixture is added to the assay plates.
(§4) The reaction is started by adding 2 μL diluted ATP on the assay plates. Plates are centrifuged for a few seconds at 1000 rpm and gently shaken for 2 min followed by an incubation at RT for 120 min.
(§5) The reactions are stopped and the unconsumed ATP is depleted by adding 5 μL ADP-Glo Reagent (Promega, Cat #V912B) to the reaction. The plates are centrifuged for a few seconds at 1000 rpm and incubated at RT for 40 min (ATP depletion).
(§6) The ADP is converted to ATP and luciferase and luciferin is introduced to detect ATP by adding 10 μL Kinase Detection Reagent (Promega, Cat #V913B+V914B) to the reaction. The plates are centrifuged for a few seconds at 1000 rpm and incubated at RT for 30 min (ADP detection).
(§7) Luminescence is measured on an Envision plate reader (PerkinElmer Inc.).

[2] = molecular target: T2, SIK3 (Homo sapiens, UniProt Q9Y2K2); assay: biochemical; conditions: ADP-Glo SIK kinase assay
T2 construct: purchased SignalChem S12-11G-100
Protocol: as §1, §2, §3, §4, §5, §6, §7

[3] = molecular target: T3, SIK1 (Homo sapiens, UniProt P57059); assay: biochemical; conditions: ADP-Glo SIK kinase assay
T3 construct: purchased Carna Biosciences 02-131
Protocol: as §1, §2, §3, §4, §5, §6, §7

[4] = molecular target: T1, SIK2; assay: biochemical; conditions: 33P radioactive SIK kinase assay, AMARA peptide, 10 μM ATP
In short: (§8)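 Radiometric assay: SIK1, SIK2 or SIK3 phosphorylates AMARA peptide using unlabelled plus [^33P]-γ-ATP, reaction started by ATP addition. Stopped with 150 mM phosphoric acid, filter-harvested and washed; incorporated ^33P counted by scintillation. Controls: 1% DMSO and 10 μM staurosporine final.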

[5] = molecular target: T2, SIK3; assay: biochemical
In short: as §8

[6] = molecular target: T3, SIK1; assay: biochemical; conditions: 33P radioactive SIK kinase assay, AMARA peptide, 10 μM ATP; read-out: SIK1 IC50
In short: as §8

[7] = tested on: LPS-induced TNFα secretion in monocyte-derived macrophages (MdM); assay: MdM assay: LPS-triggered TNFα (ELISA); assay type: cell-based, human; conditions: Homo sapiens, Macrophage, LPS-triggered TNFα inhibition
In short: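 Human CD14+ monocytes isolated from buffy-coat PBMCs by magnetic beads, differentiated to macrophages; on day 10 compound preincubated 1 h at 37 °C, then LPS 200 ng/mL added (0.2% DMSO). Supernatant taken after 20 h; TNFα quantified by sandwich ELISA against standard curve.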

T2 sequence (Q9Y2K2 whole entry): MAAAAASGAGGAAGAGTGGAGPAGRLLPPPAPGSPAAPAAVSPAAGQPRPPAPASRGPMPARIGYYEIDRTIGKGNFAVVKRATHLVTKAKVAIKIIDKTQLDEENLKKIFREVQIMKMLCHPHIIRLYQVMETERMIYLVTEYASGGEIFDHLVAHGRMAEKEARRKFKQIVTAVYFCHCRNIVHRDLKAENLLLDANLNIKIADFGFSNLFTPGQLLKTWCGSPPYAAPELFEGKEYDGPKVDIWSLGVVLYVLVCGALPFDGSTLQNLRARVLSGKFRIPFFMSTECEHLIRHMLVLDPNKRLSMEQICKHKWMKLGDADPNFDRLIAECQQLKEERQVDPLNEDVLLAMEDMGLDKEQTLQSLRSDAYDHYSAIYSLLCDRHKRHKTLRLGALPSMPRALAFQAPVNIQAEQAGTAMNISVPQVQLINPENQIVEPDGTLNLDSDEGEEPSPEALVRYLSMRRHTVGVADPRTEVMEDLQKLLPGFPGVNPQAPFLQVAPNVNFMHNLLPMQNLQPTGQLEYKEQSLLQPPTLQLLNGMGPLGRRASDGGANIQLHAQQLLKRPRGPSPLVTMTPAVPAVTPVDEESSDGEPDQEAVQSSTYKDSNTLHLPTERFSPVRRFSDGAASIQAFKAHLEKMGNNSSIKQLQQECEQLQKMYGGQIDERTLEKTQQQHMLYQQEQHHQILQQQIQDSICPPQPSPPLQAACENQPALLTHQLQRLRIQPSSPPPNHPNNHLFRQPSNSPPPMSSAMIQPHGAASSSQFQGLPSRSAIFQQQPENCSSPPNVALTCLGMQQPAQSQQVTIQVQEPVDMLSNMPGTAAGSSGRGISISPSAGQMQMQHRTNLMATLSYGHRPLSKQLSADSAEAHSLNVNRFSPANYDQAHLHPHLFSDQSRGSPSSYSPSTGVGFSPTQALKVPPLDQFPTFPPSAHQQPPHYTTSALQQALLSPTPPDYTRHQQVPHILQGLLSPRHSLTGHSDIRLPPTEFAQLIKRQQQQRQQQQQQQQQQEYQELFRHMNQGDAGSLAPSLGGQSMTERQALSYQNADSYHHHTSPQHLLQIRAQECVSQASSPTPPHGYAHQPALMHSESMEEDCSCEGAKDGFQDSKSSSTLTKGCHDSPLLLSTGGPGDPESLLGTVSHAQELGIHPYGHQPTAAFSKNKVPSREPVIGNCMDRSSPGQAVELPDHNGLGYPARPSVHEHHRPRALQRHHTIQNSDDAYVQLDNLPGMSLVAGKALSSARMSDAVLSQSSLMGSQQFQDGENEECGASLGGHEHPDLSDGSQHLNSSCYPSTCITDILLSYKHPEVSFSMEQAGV
T1 sequence (Q9H0K1 whole entry): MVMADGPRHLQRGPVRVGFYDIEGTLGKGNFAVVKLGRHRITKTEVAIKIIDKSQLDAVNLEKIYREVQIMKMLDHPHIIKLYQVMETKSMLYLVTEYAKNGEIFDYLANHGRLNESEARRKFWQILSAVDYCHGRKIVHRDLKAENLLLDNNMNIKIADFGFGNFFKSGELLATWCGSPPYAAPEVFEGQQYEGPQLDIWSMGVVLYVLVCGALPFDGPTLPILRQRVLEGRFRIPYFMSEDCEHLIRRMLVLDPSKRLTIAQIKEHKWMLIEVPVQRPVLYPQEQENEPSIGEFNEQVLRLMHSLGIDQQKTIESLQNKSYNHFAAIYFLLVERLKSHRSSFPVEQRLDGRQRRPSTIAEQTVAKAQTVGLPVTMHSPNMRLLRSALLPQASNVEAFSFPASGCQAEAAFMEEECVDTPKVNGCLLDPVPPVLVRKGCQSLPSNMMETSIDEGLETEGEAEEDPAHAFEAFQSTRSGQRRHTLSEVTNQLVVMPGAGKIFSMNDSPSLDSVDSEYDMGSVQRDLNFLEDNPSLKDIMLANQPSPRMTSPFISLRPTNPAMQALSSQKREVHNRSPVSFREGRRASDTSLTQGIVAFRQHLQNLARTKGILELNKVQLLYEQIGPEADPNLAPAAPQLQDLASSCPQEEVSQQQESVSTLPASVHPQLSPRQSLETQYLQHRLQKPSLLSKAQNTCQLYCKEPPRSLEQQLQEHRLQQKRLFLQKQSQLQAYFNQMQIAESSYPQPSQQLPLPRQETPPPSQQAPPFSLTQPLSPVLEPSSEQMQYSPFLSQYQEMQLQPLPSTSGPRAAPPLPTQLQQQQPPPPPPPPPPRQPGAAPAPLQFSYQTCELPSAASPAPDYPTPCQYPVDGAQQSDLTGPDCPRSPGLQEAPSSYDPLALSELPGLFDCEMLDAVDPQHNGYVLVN
T3 sequence (P57059 whole entry): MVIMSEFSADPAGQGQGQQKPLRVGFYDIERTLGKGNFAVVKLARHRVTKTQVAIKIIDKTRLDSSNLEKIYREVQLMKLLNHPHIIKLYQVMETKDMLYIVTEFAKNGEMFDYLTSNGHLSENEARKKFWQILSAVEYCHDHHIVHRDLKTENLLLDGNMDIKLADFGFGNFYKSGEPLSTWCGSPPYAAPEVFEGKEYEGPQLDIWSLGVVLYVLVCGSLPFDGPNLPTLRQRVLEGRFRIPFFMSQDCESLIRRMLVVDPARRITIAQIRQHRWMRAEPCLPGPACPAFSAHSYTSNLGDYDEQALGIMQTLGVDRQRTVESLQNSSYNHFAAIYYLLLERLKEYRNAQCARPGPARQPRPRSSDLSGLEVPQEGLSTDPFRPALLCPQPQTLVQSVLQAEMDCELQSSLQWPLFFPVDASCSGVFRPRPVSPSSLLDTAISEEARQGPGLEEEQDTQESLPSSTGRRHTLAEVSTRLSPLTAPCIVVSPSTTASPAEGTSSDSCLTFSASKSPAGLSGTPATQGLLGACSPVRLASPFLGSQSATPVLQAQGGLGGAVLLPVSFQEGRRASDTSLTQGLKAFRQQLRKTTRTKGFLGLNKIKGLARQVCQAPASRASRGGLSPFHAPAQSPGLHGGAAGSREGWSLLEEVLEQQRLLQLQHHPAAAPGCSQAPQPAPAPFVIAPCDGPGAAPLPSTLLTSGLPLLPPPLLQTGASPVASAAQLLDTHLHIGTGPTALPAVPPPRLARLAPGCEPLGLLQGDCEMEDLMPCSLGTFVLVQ

SMILES | IC50 [1] [nM] | IC50 [2] [nM] | IC50 [3] [nM] | IC50 [4] [nM] | IC50 [5] [nM] | IC50 [6] [nM] | EC50 [7] [nM]
COc1cc(-c2cnc3cc(-c4cnccc4C#N)ccn23)cc(OC)c1C(=O)NCC(F)(F)F [Cpd 258] | > 500 | 10 to 100 | > 500 | > 500 | 100 to 500 | > 500 | 
COc1cc(-c2cnc3cc(-c4cnccc4C(N)=O)ccn23)cc(OC)c1C(=O)NCC(F)(F)F [Cpd 259, 3-[3-[3,5-dimethoxy-4-(2,2,2-trifluoroethyl-carbamoyl)phenyl]imidazo[1,2-a]pyridin-7-yl]pyridine-4-carboxamide] | > 500 | 10 to 100 | > 500 | > 500 | 100 to 500 | > 500 | 
COc1cc(-c2cnc3cc(-c4ccc(C)nn4)ccn23)cc(OC(F)F)c1C(=O)NC1CC1 [Cpd 273, N-cyclopropyl-2-(difluoromethoxy)-6-methoxy-4-[7-(6-methylpyridazin-3-yl)imidazo[1,2-a]pyridin-3-yl]benzamide] | 0.01 to 10 | 0.01 to 10 | 10 to 100 |  |  |  | 0.1 to 100
CCOC(=O)C(Cn1cc(-c2ccn3c(-c4cc(OC)c(C(=O)NCC(F)(F)F)c(OC)c4)cnc3c2)cn1)C(C)C (centres unmarked) [Cpd 294] | 0.01 to 10 | 0.01 to 10 | 0.01 to 10 |  |  |  | 0.1 to 100
CCOC(=O)C(C(C)C)n1cc(-c2ccn3c(-c4cc(OC)c(C(=O)NCC(F)(F)F)c(OC)c4)cnc3c2)cn1 (centres unmarked) [Cpd 296, ethyl 2-[4-(3-[3,5-dimethoxy-4-(2,2,2-trifluoro-ethylcarbamoyl)phenyl]imidazo[1,2-a]pyridin-7-yl]pyrazol-1-yl]-3-methyl-butanoate] | 0.01 to 10 | 0.01 to 10 | 0.01 to 10 |  |  |  | 0.1 to 100
COc1cc(-c2cnc3cc(-c4cnn(CC(=O)OCC5CCCO5)c4)ccn23)cc(OC)c1C(=O)NCC(F)(F)F (centres unmarked) [Cpd 297, tetrahydrofuran-2-ylmethyl 2-[4-[3-[3,5-dimethoxy-4-(2,2,2-trifluoro-ethylcarbamoyl)phenyl]imidazo[1,2-a]pyridin-7-yl]pyrazol-1-yl]acetate] | 0.01 to 10 | 0.01 to 10 | 0.01 to 10 |  |  |  | 100 to 1000
CCN(CC)CCOC(=O)C(C)(C)n1cc(-c2ccn3c(-c4cc(OC)c(C(=O)NCC(F)(F)F)c(OC)c4)cnc3c2)cn1 [Cpd 305, 2-(diethylamino)ethyl 2-[4-[3-[3,5-dimethoxy-4-(2,2,2-trifluoroethyl-carbamoyl)phenyl]imidazo[1,2-a]pyridin-7-yl]pyrazol-1-yl]-2-methyl-propanoate] | 0.01 to 10 | 0.01 to 10 | 0.01 to 10 |  |  |  | 100 to 1000
COc1cc(-c2cnc3cc(-c4cnn(C5CN(C(=O)OC(C)(C)C)C5)c4)ccn23)cc(OC)c1C(=O)NCC(F)(F)F [compound 260, tert-butyl 3-[4-[3-[3,5-dimethoxy-4-(2,2,2-trifluoroethyl-carbamoyl)phenyl]imidazo[1,2-a]pyridin-7-yl]pyrazol-1-yl]azetidine-1-carboxylate] | 0.01 to 10 | 0.01 to 10 | 0.01 to 10 | 0.01 to 10 | 0.01 to 10 | 0.01 to 10 | 
COc1cc(-c2cnc3cc(-c4ccc(C#N)nn4)ccn23)cc(OC(F)F)c1C(=O)NC1CC1 [compound 282, 4-[7-(6-cyanopyridazin-3-yl)imidazo[1,2-a]pyridin-3-yl]-N-cyclopropyl-2-(difluoromethoxy)-6-methoxy-benzamide] | 0.01 to 10 | 0.01 to 10 | 0.01 to 10 |  |  |  | 
COc1cc(-c2cnc3cc(-c4ccc(N(C)C)nn4)ccn23)cc(OC(F)F)c1C(=O)NC1CC1 [compound 283, N-cyclopropyl-2-(difluoromethoxy)-4-[7-[6-(dimethylamino)pyridazin-3-yl]imidazo[1,2-a]pyridin-3-yl]-6-methoxy-benzamide] | 0.01 to 10 | 0.01 to 10 | 0.01 to 10 |  |  |  | 
COc1cc(-c2cnc3cc(-c4ccc(N5CCOCC5)nn4)ccn23)cc(OC(F)F)c1C(=O)NC1CC1 [compound 286, N-cyclopropyl-2-(difluoromethoxy)-6-methoxy-4-[7-(6-morpholino-pyridazin-3-yl)imidazo[1,2-a]pyridin-3-yl]benzamide] | 0.01 to 10 | 0.01 to 10 | 0.01 to 10 |  |  |  | 

Other lines, results leading:

IC50 [1] [nM] | IC50 [2] [nM] | IC50 [3] [nM] | IC50 [4] [nM] | IC50 [5] [nM] | IC50 [6] [nM] | EC50 [7] [nM] | SMILES
100 to 500 | 100 to 500 | > 500 | 100 to 500 | 100 to 500 | > 500 |  | CCN1Cc2cc(-n3cnc4cc(-c5cnn(C)c5)ccc43)cc(F)c2C1=O [Cpd 175, 2-ethyl-7-fluoro-5-[5-(1-methylpyrazol-4-yl)benzimidazol-1-yl]isoindolin-1-one]
100 to 500 | 100 to 500 | 100 to 500 | 100 to 500 | > 500 | 100 to 500 |  | CCN1Cc2cc(-n3cnc4cc(-c5cnn(C)c5)ccc43)cc(NCCO)c2C1=O [Cpd 202, 2-ethyl-7-(2-hydroxyethylamino)-5-[5-(1-methylpyrazol-4-yl)benzimidazol-1-yl]isoindolin-1-one]
0.01 to 10 | 0.01 to 10 | 10 to 100 |  |  |  | 0.1 to 100 | COc1cc(-c2cnc3cc(-c4cnn(C)c4)ccn23)cc(F)c1C(=O)NC1CC1 [Cpd 276, N-cyclopropyl-2-fluoro-6-methoxy-4-[7-(1-methylpyrazol-4-yl)imidazo[1,2-a]pyridin-3-yl]benzamide]
0.01 to 10 | 0.01 to 10 | 10 to 100 |  |  |  | 100 to 1000 | COCCOc1cc(-c2cnc3cc(-c4cnn(C)c4)ccn23)cc(OC)c1C(=O)NC1CC1 [Cpd 278, N-cyclopropyl-2-methoxy-6-(2-methoxyethoxy)-4-[7-(1-methylpyrazol-4-yl)imidazo[1,2-a]pyridin-3-yl]benzamide]
0.01 to 10 | 0.01 to 10 | 0.01 to 10 |  |  |  | 0.1 to 100 | CCOC(=O)C(C)(C)n1cc(-c2ccn3c(-c4cc(OC)c(C(=O)NCC(F)(F)F)c(OC)c4)cnc3c2)cn1 [Cpd 295, ethyl 2-[4-[3-[3,5-dimethoxy-4-(2,2,2-trifluoroethyl-carbamoyl)phenyl]imidazo[1,2-a]pyridin-7-yl]pyrazol-1-yl]-2-methyl-propanoate]
0.01 to 10 | 0.01 to 10 | 0.01 to 10 |  |  |  | 1000 to 5000 | CCOC(=O)COc1cn2c(-c3cc(OC)c(C(=O)NC4CC4)c(OC(F)F)c3)cnc2cc1-c1cnn(C)c1 [Cpd 298, ethyl 2-[3-[4-(cyclopropyl-carbamoyl)-3-(difluoromethoxy)-5-methoxy-phenyl]-7-(1-methylpvrazol-4-yl)imidazo[1,2-a]pyridin-6-yl]oxyacetate]
0.01 to 10 | 10 to 100 | 10 to 100 |  |  |  | > 5000 | COc1cc(-c2cnc3cc(-c4cnn(C)c4)c(OCC(=O)O)cn23)cc(OC(F)F)c1C(=O)NC1CC1 [Cpd 299, 2-[3-[4-(cyclopropyl-carbamoyl)-3-(difluoromethoxy)-5-methoxy-phenyl]-7-(1-melhylpyrazol-4-yl)imidazo[1,2-a]pyridin-6-yl]oxyacetic acid]
0.01 to 10 | 0.01 to 10 | 0.01 to 10 | 0.01 to 10 | 0.01 to 10 | 10 to 100 |  | COc1cc(-c2cnc3cc(-c4cnn(C)c4)ccn23)cc(OC)c1C(=O)N[C@H]1C[C@@H]1C(F)F [compound 172, N-[(1S,2S)-2-(difluoromethyl)cyclopropyl]-2,6-dimethoxy-4-[7-(1-methylpyrazol-4-yl)imidazo[1,2-a]pyridin-3-yl]benzamide]
10 to 100 | 10 to 100 | 100 to 500 | 10 to 100 | 100 to 500 | > 500 |  | CCN1Cc2cc(-c3cnc4cc(-c5cnn(C)c5)ccn34)cc(NCCO)c2C1=O [compound 201, 2-ethyl-7-(2-hydroxyethylainino)-5-[7-(1-methylpyrazol-4-yl)imidazo[1,2-a]pyridin-3-yl]isoindolin-1-one]
0.01 to 10 | 0.01 to 10 | 0.01 to 10 |  |  |  | 0.1 to 100 | COc1ccc(-c2ccn3c(-c4cc(OC)c(C(=O)NC5CC5)c(OC(F)F)c4)cnc3c2)cn1 [compound 267, N-cyclopropyl-2-(difluoromethoxy)-6-methoxy-4-[7-(6-methoxy-3-pyridyl)imidazo[1,2-a]pyridin-3-yl]benzamide]
